In brackets after ≈: the same amount, converted by molar mass.
How the values were obtained:
[1] = biological target: recombinant full-length human hydroxyacid oxidase 1 (HAO1), the equivalent of hGOX (Homo sapiens (Human), UniProt Q9UJM8); test: In-vitro human glycolate oxidase (hGOX) assay (Amplex red/HRP fluorescence); assay type: biochemical
Protocol: Biological Activity Assay: In-Vitro Human Glycolate Oxidase (hGOX) Assay
The in-vitro glycolate oxidase assay was performed using recombinant full-length human hydroxyacid oxidase 1 (HAO1), the equivalent of hGOX. […] Purified HAO1 was dissolved in assay buffer consisting of 10 mM NaCl, 110 mM KCl, 2 mM MgCl2, 50 mM HEPES (pH 7.4) and 0.01% Triton™ X-100.

[2] = Solubility in phosphate buffered saline (PBS), pH 7.4; assay type: physicochemical; details: phosphate buffer (PBS), aqueous buffer, kinetic from dmso stock; phosphate buffered saline pH 7.4, 1% DMSO, 1 hour shaking at room temperature
Protocol: (§1) For testing compound solubility in phosphate buffered saline (PBS), compound stock solutions were prepared at 10 mM in 100% DMSO. For testing in aqueous solution, the phosphate buffer was replaced with deionized, distilled water. Eleven grams Na2HPO4 (FW: 141.96 g/mol) and 3.5 g NaH2PO4.2H2O (FW: 156.03 g/mol) was added to 1 L Milli-Q water and adjusted to a pH to 7.4 with phosphoric acid or sodium hydroxide. For incubation, media were preheated to 37° C. Eight μL aliquots of reference and test compound stock solutions (10 mM) were added into 792 μL of 100 mM phosphate buffer (pH 7.4). The final DMSO concentration was 1%. Sample tubes were shaken for 1 hour at 1000 rpm at room temperature.
(§2) The calibration curve was prepared with 300-μM spiking solution (SS) in MeOH:acetonitrile (4:1). Six μL of 10 mM compound was added in 194 μL MeOH/acetonitrile (4:1). Samples were centrifuged for 10 minutes at 12,000 rpm to precipitate undissolved particles. Supernatants were transferred to a new tube or plate and dilute 10-fold and 100-fold with 100 mM buffer. Samples were prepared for LC-MS/MS analysis by adding 5 μL each sample (undiluted, 10-fold diluted, and 100-fold diluted) and 5 μL of standard curve samples to 95 μL of acetonitrile (containing internal standard).

[3] = Solubility in aqueous solution (deionized, distilled water); assay type: physicochemical; details: kinetic from dmso stock, 1% DMSO, read-out: Aqueous Solubility H2O
Protocol: as §1, §2

[4] = Metabolic stability in human liver microsomal preparation; assay type: in vitro ADME; details: pH 7.4, human liver microsomes, NADPH, 37° C.; for half-life at 1 μM: 0-45 min, read-out: Metabolic Stability t1/2
Protocol: For evaluating the metabolic stability in human liver microsomal preparation, three buffers were prepared. Buffer A had 1.0 L of 0.1 M monobasic potassium phosphate buffer containing 1.0 mM EDTA. Buffer B had 1.0 L of 0.1 M dibasic potassium phosphate buffer containing 1.0 mM EDTA. Buffer C had 0.1 M potassium phosphate buffer, 1.0 mM EDTA, adjusted to a pH 7.4 via titrating 700 mL buffer B with buffer A. Reference compound (ketanserin) and test compounds spiking solutions (500 μM) were prepared by adding 10 μL of 10 mM DMSO stock compound solution into 190 μL acetonitrile. A volume of 1.5 μL 500 μM spiking solution and 18.75 μL 20 mg/mL human liver microsomes were added into 479.75 μL of Buffer C on ice. A stock solution of 6 mM NADPH was prepared by dissolving NADPH into Buffer C.
Wells on an assay plate were iced and filled with 30 μL 1.5-μM spiking solution containing 0.75 mg/mL microsomes solution and designated for different timepoints (0-, 5-, 15-, 30-, 45-min). For the 0-min timepoint, 135 μL acetonitrile containing internal standard were added followed by 15 μL of NADPH stock solution (6 mM). All other plates were preincubated at 37° C. for 5 minutes and 15 μL NADPH stock solution (6 mM) were added to the plates to start the reaction. At 5-min, 15-min, 30-min, and 45-min, 135 μL acetonitrile containing internal standard were added to the wells of corresponding plates, respectively, to stop the reaction. After quenching, the plates were shaken on the vibrator (IKA, MTS 2/4) for 10 min at 600 rpm and then centrifuged at 5594×g for 15 minutes (Thermo Multifuge×3R). Fifty μL supernatant from each well were transported into a 96-well sample plate containing 50 μL of ultra-pure water (Millipore, ZMQS50F01) for LC/MS analysis.

[5] = Stability in human plasma; assay type: in vitro ADME; details: read-out: Plasma Stability T1/2
Protocol: Stability in Human Plasma.
Stock compounds were prepared for testing the stability in human plasma. First, 0.05 M sodium phosphate and 0.07 M NaCl buffer, pH 7.4, were pre-heated. In deionized water, 14.505 g/L Na2HPO 12H2O, 1.483 g/L NaH2PO4.2H2O and 4.095 g/L NaCl were dissolved. The basic solution was titrated with the phosphoric acid to pH 7.40. Frozen plasma was quickly thawed at 37° C. The plasma was centrifuged at 3,000 rpm for 8 minutes to remove clots, then pipetted and pooled as the plasma stock for the experiment. Only plasma within the range of pH 7.4 to pH 8 was used. If higher than pH 8, the plasma was discarded. The initial pH of the plasma was not adjusted to pH 7.4 with acid or by bubbling with carbon dioxide. By using a 5% carbon dioxide incubator and PBS buffer, a pH of 7.4 will be reached after the 4-hour equilibrium dialysis time. Plasma was iced until use.
Spiking solution A with 0.5 mM testing compounds was prepared by adding 10 μL of 10 mM test compounds stock solution to 190 μL DMSO. Spiking solution B with 0.02 mM testing compound was prepared by adding 40 μL of spiking solution A to 960 μL of […] sodium phosphate buffer with 0.5% BSA. The plasma and spiking solution B were prewarmed at 37° C. for 5 minutes. Ten μL of pre-warmed spiking solution B was added into the wells designated for all the time points (5, 15, 30, 45, 60 minutes). For the 0-minute timepoint, 400 μL acetonitrile containing internal standard were added to the wells of 0-minute plate and then 90 μL plasma were added. For the other timepoints, 90 μL of pre-warmed plasma were added into the wells (0, 5, 15, 30, 45, 60 minutes) and the timing was started. At 5, 15, 30, 45, 60 minutes, 400 μL acetonitrile containing internal standard were added to the wells of corresponding plates, respectively, to stop the reaction. After quenching, the plates were shaken on a vibrator (IKA, MTS 2/4) for 10 minutes at 600 rpm and then centrifuged at 5594×g for 15 minutes (Thermo Multifuge×3R). Fifty μL of supernatant was transferred from each well into a 96-well sample plate containing 50 μL ultra-pure water (Millipore, ZMQS50F01) for LC/MS analysis.

[6] = Protein binding (plasma equilibrium dialysis); assay type: in vitro ADME; details: 5 hours at 37° C.; for fraction unbound at 5 h, 1 μM: read-out: Protein Binding Fraction Bound (converted)
Protocol: For testing protein binding of stock compounds solubilized in DMSO, spiking solutions of test and reference compounds were prepared. Solution A (0.5 mM) was prepared by adding 10 μL of 10 mM stock solution into 190 μL of DMSO. Solution B (0.02 mM) was prepared by adding 8 μL of Solution A into 192 μL of 0.05 M sodium phosphate buffer. The final DMSO concentration in Solution B was 4%.
To prepare test and reference compounds in plasma, a 96-well plate with 380 μL aliquots of plasma in the wells designed for plasma and buffer, respectively. Twenty μL of Solution B (0.02 mM of test and reference compounds) were spiked into the pre-loaded plasma in the 96-well plate. The final test concentration is 1 μM containing 0.2% DMSO.
For dialysis sample loading a plasma again buffer system was prepared by applying aliquots of 100 μL of blank dialysis buffer to the receiver side of dialysis chambers and then applying aliquots of 100 μL of the plasma spiked with test and reference compounds to the donor side of the dialysis chamber. A 25-μL aliquot of the plasma spiked with test and reference compounds was added into a 96-well sample preparation plate as T″0″ plasma samples. Aliquots were mixed with the same volume of blank buffer (50:50, volume:volume). Samples were quenched with 200 μL of acetonitrile containing internal standard. The dialysis block was covered and a shaken at 60 rpm for 5 hours at 37° C.
After a 5-hour incubation, dialyzed samples were prepared from 25-μL aliquots from both the donor and receiver sides of the dialysis apparatus into new sample preparation plates. The aliquots were mixed with same volume of opposite matrixes. The samples were quenched with 200 μL acetonitrile containing internal standard. All 0-hour and 5-hour samples were vortexed at 600 rpm for 10 min followed by centrifugation at 5594×g for 15 minutes (Thermo Multifuge×3R). Fifty μL of the supernatants were transferred to anew 96-well plate and mixed with 50 μL Milli-Q water. The sample plate was covered and frozen at −20° C. until LC/MS/MS analysis.

recombinant full-length human hydroxyacid oxidase 1 (HAO1), the equivalent of hGOX, sequence (Q9UJM8 whole entry): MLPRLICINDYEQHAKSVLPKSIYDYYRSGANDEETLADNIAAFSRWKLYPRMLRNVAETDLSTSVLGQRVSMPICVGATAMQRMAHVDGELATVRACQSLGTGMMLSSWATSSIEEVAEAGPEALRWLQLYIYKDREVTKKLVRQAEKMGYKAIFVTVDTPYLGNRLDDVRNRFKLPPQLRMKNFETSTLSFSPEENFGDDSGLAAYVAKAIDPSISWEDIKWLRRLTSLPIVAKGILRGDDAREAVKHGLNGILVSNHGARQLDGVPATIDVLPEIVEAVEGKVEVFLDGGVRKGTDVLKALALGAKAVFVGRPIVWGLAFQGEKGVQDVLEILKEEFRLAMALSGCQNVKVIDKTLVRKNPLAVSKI

Row | Compound | IC50 [1] [nM] | solubility at 1 h [2] [µM] | solubility at 1 h [3] [µM] | CLint scaled at 1 μM [4] [mL/min/kg] | half-life at 1 μM [4] [h] | half-life at 2 μM [5] [h] | recovery at 5 h, 1 μM [6] [%] | fraction unbound at 5 h, 1 μM [6]
1 | O=C(O)c1[nH]nnc1Oc1ccc(Cl)c(Cl)c1 [Example I-050, 5-(3,4-Dichlorophenoxy)-1H-1,2,3-triazole-4-carboxylic acid] | 12 | 120 (≈ 33 µg/mL) | 102 (≈ 28 µg/mL) | 2.47 | 11.7 | 2.35 | 71.2 | –
2 | Cc1ccc(-c2ccc(Sc3[nH]nnc3C(=O)O)cc2)cc1 [Example I-129, 5-((4′-Methyl-[1,1′-biphenyl]-4-yl)thio)-1H-1,2,3-triazole-4-carboxylic acid] | 41 | 116 (≈ 36.1 µg/mL) | 72.7 (≈ 22.6 µg/mL) | 21.6 | 1.34 | 1.44 | 113 | –
3 | O=C(O)c1nn[nH]c1Oc1ccc(-c2ccccc2)cc1 [Example I-150, 5-([1,1′-Biphenyl]-4-yloxy)-1H-1,2,3-triazole-4-carboxylic acid] | 23 | 95.7 (≈ 26.9 µg/mL) | 83.1 (≈ 23.4 µg/mL) | 3.04 | 8.78 | 0.747 | 100 | –
4 | Cc1ccc(-c2ccc(Oc3[nH]nnc3C(=O)O)cc2)cc1 [Example I-151, 5-((4′-Methyl-[1,1′-biphenyl]-4-yl)oxy)-1H-1,2,3-triazole-4-carboxylic acid] | 11 | 83.2 (≈ 24.6 µg/mL) | 53 (≈ 15.6 µg/mL) | < 0.15 | > 83.3 | 0.669 | – | –
5 | O=C(O)c1nn[nH]c1Oc1cccc(C2CCCC2)c1 [Example I-267, 5-(3-Cyclopentylphenoxy)-1H-1,2,3-triazole-4-carboxylic acid] | 35 | 79.8 (≈ 21.8 µg/mL) | 82.6 (≈ 22.6 µg/mL) | < 0.15 | > 83.3 | 1.15 | 113 | –
6 | O=C(O)c1nn[nH]c1Oc1ccc(-c2ccc3ccccc3c2)cc1 [Example I-177, 5-(4-(Naphthalen-2-yl)phenoxy)-1H-1,2,3-triazole-4-carboxylic acid] | 12 | 89.3 (≈ 29.6 µg/mL) | 45.7 (≈ 15.1 µg/mL) | 3.07 | 9.43 | 1.12 | 99.3 | –

Continued, values first:

Row | IC50 [1] [nM] | solubility at 1 h [2] [µM] | solubility at 1 h [3] [µM] | CLint scaled at 1 μM [4] [mL/min/kg] | half-life at 1 μM [4] [h] | half-life at 2 μM [5] [h] | recovery at 5 h, 1 μM [6] [%] | fraction unbound at 5 h, 1 μM [6] | Compound
7 | 7 | 110 (≈ 36.2 µg/mL) | 90.1 (≈ 29.7 µg/mL) | 3.49 | 8.31 | 2.82 | 110 | 0.01 | COc1cc(-c2ccc(Oc3[nH]nnc3C(=O)O)cc2)ccc1F [Example I-271, 5-((4′-Fluoro-3′-methoxy-[1,1′-biphenyl]-4-yl)oxy)-1H-1,2,3-triazole-4-carboxylic acid]
8 | 53 | 108 (≈ 26.4 µg/mL) | 108 (≈ 26.4 µg/mL) | 3.4 | 8.52 | 1.71 | 111 | – | O=C(O)c1nn[nH]c1Oc1ccc(C2CC2)cc1 [Example I-294, 5-(4-Cyclopropylphenoxy)-1H-1,2,3-triazole-4-carboxylic acid]
9 | 84 | 103 (≈ 28.3 µg/mL) | 96.6 (≈ 26.6 µg/mL) | 65.3 | 0.443 | 4.61 | 101 | – | CCC(CC)c1ccc(Oc2[nH]nnc2C(=O)O)cc1 [Example I-272, 5-(4-(Pentan-3-yl)phenoxy)-1H-1,2,3-triazole-4-carboxylic acid]
10 | 45 | 112 (≈ 30.8 µg/mL) | 108 (≈ 29.7 µg/mL) | 35.2 | 0.822 | 2.2 | 99.9 | 0.003 | CCCC(C)c1ccc(Oc2[nH]nnc2C(=O)O)cc1 (stereo not shown) [Example I-273, 5-(4-(Pentan-2-yl)phenoxy)-1H-1,2,3-triazole-4-carboxylic acid]
11 | 23 | 109 (≈ 30 µg/mL) | 103 (≈ 28.4 µg/mL) | 5.95 | 4.87 | 3.2 | 108 | 0.006 | CCC(CC)c1cccc(Oc2[nH]nnc2C(=O)O)c1 [Example I-276, 5-(3-(Pentan-3-yl)phenoxy)-1H-1,2,3-triazole-4-carboxylic acid]

Reference: patent US11389456B2, “Compounds and methods for treating oxalate-related diseases” (OxaluRx, Inc., priority 2018, dated 2022)
